US8524705B2, “2-oxo-2-(2-phenyl-5,6,7,8-tetrahydro-indolizin-3-yl)-acetamide derivatives and related compounds as antifungal agents” (F2G Limited British Body Corporate, priority 2007, dated 2013)
Converted amounts (≈) assume the structure as drawn.

Tests used:
Format in all cases: cell-based
Details in all cases: banded into grades
[1] = tested on: Aspergillus flavus; experiment: Measurement of Minimum Inhibitory Concentrations (MICs), A. flavus
Experimental: (§1) Between 1 and 5 mgs of compound were accurately weighed out into a sterile Eppendorf tube. The compound was dissolved in DMSO to give a solution containing 5 mg/mL. Tubes were stored at −20° C. until required. On the day of testing thawed solutions were vortex mixed to ensure homogeneity. 30 μL of solution was removed and added to 570 μL of sterile water in a separate sterile Eppendorf. The thoroughly mixed solution was used to prepare a series of doubling dilutions in water, in a deep well plate. […] replicate plates were prepared using a Minitrak by aspirating […] from each well into eleven clear polystyrene 96 well plates. Spores of Aspergillus spp. (Aspergillus fumigatus [two strains], Aspergillus terreus [two strains], Aspergillus niger and Aspergillus flavus) were harvested from cultures grown on Sabarauds agar for 5 days, and resuspended in PBS/Tween 80 to approx 1×10^7 cfu/mL. Each organism suspension was diluted in YAG medium (1% glucose, 1% ammonium chloride and 0.5% yeast extract) to 0.5-2×10^4 cfu/mL. 80 μL of an organism suspension was added to each well of the plate containing drug dilutions. This produced MIC plates with a drug range 50-0.05 mg/L and organism inocula of 1−2×10^4 cfu/mL for Aspergillus spp. All plates were incubated for 24 hrs at 35° C. Growth was assessed by monitoring the optical density at 485 nm for each well. The MIC of a compound is the lowest drug concentration that inhibits growth of an organism by >70% compared with a drug free control. MICs are recorded as mg/L. In cases where the MIC of an organism is >=0.05 mg/L the MIC is repeated using a concentration range of 0.5-0.0005 mg/L. Other growth media can be used for susceptibility testing, and the activity of the described compounds was also assessed in RPMI medium containing 2% glucose, and 0.135M MOPS buffer. MIC tests in YAG medium have more clear-cut endpoints and have slightly lower MICs than those performed in RPMI medium. The following organisms were tested: Aspergillus flavus, Aspergillus fumigatus AF293 and AF210, Aspergillus niger and Aspergillus terreus AT4 and AT49.

[2] = tested on: Aspergillus fumigatus AF293; experiment: Measurement of Minimum Inhibitory Concentrations (MICs), A. fumigatus
Experimental: as §1

[3] = tested on: Aspergillus fumigatus AF210; experiment: Measurement of Minimum Inhibitory Concentrations (MICs), A. fumigatus 210
Experimental: as §1

[4] = tested on: Aspergillus niger; experiment: Measurement of Minimum Inhibitory Concentrations (MICs), A. niger
Experimental: as §1

[5] = tested on: Aspergillus terreus AT4; experiment: Measurement of Minimum Inhibitory Concentrations (MICs), A. terreus
Experimental: as §1

[6] = tested on: Aspergillus terreus AT49; experiment: Measurement of Minimum Inhibitory Concentrations (MICs), A. terreus 49
Experimental: as §1

[7] = RPMI medium containing 2% glucose, 0.135M MOPS buffer
[8] = YAG medium, 24 hrs at 35° C., >70% growth inhibition

MIC [1, 7] [µg/mL]	MIC [1, 8] [µg/mL]	MIC [2, 7] [µg/mL]	MIC [2, 8] [µg/mL]	MIC [3, 7] [µg/mL]	MIC [3, 8] [µg/mL]	MIC [4, 7] [µg/mL]	MIC [4, 8] [µg/mL]	MIC [5, 7] [µg/mL]	MIC [5, 8] [µg/mL]	MIC [6, 7] [µg/mL]	MIC [6, 8] [µg/mL]	Structure (SMILES)
< 1	< 1	< 1	< 1	< 1	< 1	< 1	< 1	< 1	< 1	< 1	< 1	CCc1cccc(N2CCN(c3ccc(NC(=O)C(=O)c4c(-c5ccccc5)cc5n4CCCC5)cc3)CC2)n1 [Example 15, N-{4-[4-(6-Ethyl-pyridin-2-yl)-piperazin-1-yl]-phenyl}-2-oxo-2-(2-phenyl-5,6,7,8-tetrahydro-indolizin-3-yl)-acetamide]
< 1	< 1	< 1	< 1	< 1	< 1	< 1	< 1	< 1	< 1	< 1	< 1	Cc1ccc(N2CCN(c3ccc(NC(=O)C(=O)c4c(-c5ccccc5)cc5n4CCCC5)cc3)CC2)nc1 [Example 16, N-{4-[4-(5-Methyl-pyridin-2-yl)-piperazin-1-yl]-phenyl}-2-oxo-2-(2-phenyl-5,6,7,8-tetrahydro-indolizin-3-yl)-acetamide]
< 1	< 1	< 1	< 1	< 1	< 1	< 1	< 1	< 1	< 1	< 1	< 1	CCc1ccnc(N2CCN(c3ccc(NC(=O)C(=O)c4c(-c5ccccc5)cc5n4CCCC5)cc3)CC2)c1 [Example 17, N-{4-[4-(4-Ethyl-pyridin-2-yl)-piperazin-1-yl]-phenyl}-2-oxo-2-(2-phenyl-5,6,7,8-tetrahydro-indolizin-3-yl)-acetamide]
< 1	< 1	< 1	< 1	< 1	< 1	< 1	< 1	< 1	< 1	< 1	< 1	O=C(Nc1ccc(N2CCN(c3ccc(CN4CCOCC4)cn3)CC2)cc1)C(=O)c1c(-c2ccccc2)cc2n1CCCC2 [Example 18, N-{4-[4-(5-Morpholin-4-ylmethyl-pyridin-2-yl)-piperazin-1-yl]-phenyl}-2-oxo-2-(2-phenyl-5,6,7,8-tetrahydro-indolizin-3-yl)-acetamide]
< 1	< 1	< 1	< 1	< 1	< 1	< 1	< 1	< 1	< 1	< 1	< 1	Cc1cc(C)nc(N(C)CCCN(C)c2ccc(NC(=O)C(=O)c3c(-c4ccccc4)cc4n3CCCC4)cc2)c1 [Example 19, N-[4-({3-[(4,6-Dimethyl-pyridin-2-yl)-methyl-amino]-propyl}-methyl-amino)-phenyl]-2-oxo-2-(2-phenyl-5,6,7,8-tetrahydro-indolizin-3-yl)-acetamide]
< 1	< 1	< 1	< 1	< 1	< 1	< 1	< 1	< 1	< 1	< 1	< 1	Cc1cc(C)nc(N2CCN(c3ccc(NC(=O)C(=O)c4c(-c5ccccc5)cc5n4CCCC5)c(C)c3)CC2)c1 [Example 20, N-{4-[4-(4,6-Dimethyl-pyridin-2-yl)-piperazin-1-yl]-2-methyl-phenyl}-2-oxo-2-(2-phenyl-5,6,7,8-tetrahydro-indolizin-3-yl)-acetamide]
< 1	< 1	< 1	< 1	< 1	< 1	< 1	< 1	< 1	< 1	< 1	< 1	Cc1cc(C)nc(N2CCC(O)(c3ccc(NC(=O)C(=O)c4c(-c5ccccc5)cc5n4CCCC5)cc3)CC2)c1 [Example 21, N-[4-(4-Hydroxy-4′,6′-dimethyl-3,4,5,6-tetrahydro-2H-[1,2′]bipyridinyl-4-yl)-phenyl]-2-oxo-2-(2-phenyl-5,6,7,8-tetrahydro-indolizin-3-yl)-acetamide]
< 1	< 1	< 1	< 1	< 1	< 1	< 1	< 1	< 1	< 1	< 1	< 1	Cc1cc(C)nc(N2CCN(c3ccc(NC(=O)C(=O)c4c(-c5ccccc5)cc5n4CCCC5)cc3C)CC2)c1 [Example 22, N-{4-[4-(4,6-Dimethyl-pyridin-2-yl)-piperazin-1-yl]-3-methyl-phenyl}-2-oxo-2-(2-phenyl-5,6,7,8-tetrahydro-indolizin-3-yl)-acetamide]
< 1	< 1	< 1	< 1	< 1	< 1	< 1	< 1	< 1	< 1	< 1	< 1	COCc1cc(NC(=O)C(=O)c2c(-c3ccccc3)cc3n2CCCC3)ccc1N1CCN(c2cc(C)cc(C)n2)CC1 [Example 23, N-{4-[4-(4,6-Dimethyl-pyridin-2-yl)-piperazin-1-yl]-3-methoxymethyl-phenyl}-2-oxo-2-(2-phenyl-5,6,7,8-tetrahydro-indolizin-3-yl)-acetamide]
1 to 10 (≈ 1.73 to 17.3 µM)	< 1	1 to 10 (≈ 1.73 to 17.3 µM)	< 1	1 to 10 (≈ 1.73 to 17.3 µM)	< 1	1 to 10 (≈ 1.73 to 17.3 µM)	< 1	< 1	< 1	< 1	< 1	COCc1cc(N2CCN(c3cc(C)cc(C)n3)CC2)ccc1NC(=O)C(=O)c1c(-c2ccccc2)cc2n1CCCC2 [Example 24, N-{4-[4-(4,6-Dimethyl-pyridin-2-yl)-piperazin-1-yl]-2-methoxymethyl-phenyl}-2-oxo-2-(2-phenyl-5,6,7,8-tetrahydro-indolizin-3-yl)-acetamide]
> 10	> 10	> 10	> 10	> 10	> 10	> 10	> 10	> 10	> 10	> 10	> 10	Cc1cc(C)nc(N2CCN(c3ccc(NC(=O)C(=O)c4c(-c5ccccc5)cc5n4CCCC5)cc3COCCCN3CCN(C)CC3)CC2)c1 [Example 25, N-{4-[4-(4,6-Dimethyl-pyridin-2-yl)-piperazin-1-yl]-3-[3-(4-methyl-piperazin-1-yl)-propoxymethyl]-phenyl}-2-oxo-2-(2-phenyl-5,6,7,8-tetrahydro-indolizin-3-yl)-acetamide]
> 10	1 to 10 (≈ 1.45 to 14.5 µM)	> 10	> 10	> 10	> 10	> 10	> 10	> 10	> 10	> 10	> 10	Cc1cc(C)nc(N2CCN(c3ccc(NC(=O)C(=O)c4c(-c5ccccc5)cc5n4CCCC5)cc3COCCCN3CCOCC3)CC2)c1 [Example 26, N-[4-[4-(4,6-Dimethyl-pyridin-2-yl)-piperazin-1-yl]-3-(3-morpholin-4-yl-propoxymethyl)-phenyl]-2-oxo-2-(2-phenyl-5,6,7,8-tetrahydro-indolizin-3-yl)-acetamide]
< 1	< 1	< 1	< 1	< 1	< 1	< 1	< 1	< 1	< 1	< 1	< 1	Cc1cc(C)nc(N2CCN(c3ccc(NC(=O)C(=O)c4c(-c5ccccc5)cc5n4CCCC5)cc3Cl)CC2)c1 [Example 27, N-{3-Chloro-4-[4-(4,6-dimethyl-pyridin-2-yl)-piperazin-1-yl]-phenyl}-2-oxo-2-(2-phenyl-5,6,7,8-tetrahydro-indolizin-3-yl)-acetamide]
